Test results from US4322340A, “Pharmacologically active peptides” (Eli Lilly and Company, priority 1980, dated 1982).
Counter-ions that a name gives are not always drawn.

How the values were obtained:
mouse [1] = experiment: mouse locomotor activity test (physical dependence liability); assay type: in vivo; settings: group of ten mice
Description: A high correlation has been established between the degree of physical dependence liability of a compound and its ability to elicit mouse locomotor activity; Cf. Goldstein et al., The Journal of Pharmacology and Experimental Therapeutics 169, 175-184 (1969); Rethy et al., The Journal of Pharmacology and Experimental Therapeutics 176, 472-479 (1971); and Brase et al., The Journal of Pharmacology and Experimental Therapeutics 201(2), 368-374 (1977).
Mouse locomotor activity is measured using cylindrical cages of wire mesh 2 inches high and 11 inches in diameter. Six cages are enclosed in a ventilated, sound-attenuated chamber having uniform lighting. A light beam is passed through the center of the cage to a photocell on the opposite side. Two mice are placed in each cage for one hour to become acclimated to the surroundings. Five pairs of mice then are injected subcutaneously with a predetermined dose of the test compound, the remaining pair receiving saline carrier free of test compound. The mice are returned to their respective cages for three hours. The number of counts per each 15 minute period as well as the total number over the three hour period are recorded. Each interruption of the light beam constitutes a count.
The following Table II reflects a mean of the total counts for each group of ten mice tested using a particular compound and dose level.

mouse [2] = experiment: mouse hot plate test (analgesic activity); assay type: in vivo; settings: subcutaneous injection, tested 15 minutes after administration, hot plate 52° C.
Description: In this test, an upright acrylic cylinder comprising, as its base, a hot plate surface which is maintained at 52° C. is used. A mouse is given, by subcutaneous injection, a predetermined amount of test compound dissolved or suspended in a suitable carrier, and, 15 minutes after administration of the test compound, the mouse is placed on the hot plate surface. The latency in seconds until the mouse jumps from the hot plate surface is measured. […] This must occur in a dose range which produces no motor incoordination or incapacitation. The following Table I records ED50 results obtained from this test. By the term "ED50 " is meant that dose which produces analgesia in 50% of the mice tested. Analgesia is defined as a response latency in the presence of test compound that is equal to or greater than the control response latency plus two standard deviations. The percent analgesia data are converted to probits, and the ED50 is calculated by regression analysis of the dose-response data. Each dose response curve must have at least four points, and each point is determined using data from a minimum of ten treated mice and ten control mice.

[3] = Dose 128 mg./kg. subcutaneously

Molecule	mean of the total counts, locomotor activity over three hours (mouse [1]; Dose 4 mg./kg. subcutaneously) [counts]	mean of the total counts, locomotor activity over three hours (mouse [1]; Dose 8 mg./kg. subcutaneously) [counts]	mean of the total counts, locomotor activity over three hours (mouse [1]; Dose 16 mg./kg. subcutaneously) [counts]	mean of the total counts, locomotor activity over three hours (mouse [1]; Dose 32 mg./kg. subcutaneously) [counts]	mean of the total counts, locomotor activity over three hours (mouse [1]; Dose 64 mg./kg. subcutaneously) [counts]	mean of the total counts, locomotor activity over three hours (mouse [1]; [3]) [counts]	Analgesic Activity, Hot Plate Test, ED50 (mouse [2]) [µg/kg]
CN[C@@H](Cc1ccc(O)cc1)C(=O)N[C@H](C)C(=O)NCC(=O)N(CC1CC1)[C@@H](Cc1cccc(Br)c1)C(N)=O [Example 1, L-(N-Methyl)tyrosyl-D-alanyl-glycyl-L-(N-cyclopropylmethyl)-m-bromophenylalanine Amide, Acetate Salt]	171	140	276	320	1888	2159	–
CCN(C(=O)CNC(=O)[C@@H](C)NC(=O)[C@H](Cc1ccc(O)cc1)NC)[C@@H](Cc1cccc(Br)c1)C(N)=O [Example 2, L-(N-Methyl)tyrosyl-D-alanyl-glycyl-L-(N-ethyl)-m-bromophenylalanine Amide, Acetate Salt]	142	235	358	701	2523	5153	3
CCN(C(=O)CNC(=O)[C@@H](C)NC(=O)[C@H](Cc1ccc(O)cc1)NC)[C@@H](Cc1cccc(C)c1)C(N)=O [Example 4, L-(N-Methyl)tyrosyl-D-alanyl-glycyl-L-(N-ethyl)-m-methyl-phenylalanine Amide, Acetate Salt]	173	255	537	1176	3231	3852	3
CCN(C(=O)CNC(=O)[C@@H](C)NC(=O)[C@@H](N)Cc1ccc(O)cc1)[C@@H](Cc1cccc(Cl)c1)C(N)=O [Example 5, L-Tyrosyl-D-alanyl-glycyl-L-(N-ethyl)-m-chlorophenylalanine Amide, Acetate Salt]	125	613	819	2388	3667	2807	0.3
CCN(C(=O)CNC(=O)[C@@H](C)NC(=O)[C@H](Cc1ccc(O)cc1)NC)[C@@H](Cc1cccc(Cl)c1)C(N)=O [Example 6, L-(N-Methyl)tyrosyl-D-alanyl-glycyl-L-(N-ethyl)-m-chlorophenylalanine Amide, Acetate Salt]	148	304	796	1978	4477	3476	1.8
CCN(C(=O)CNC(=O)[C@@H](C)NC(=O)[C@@H](N)Cc1ccc(O)cc1)[C@@H](Cc1cccc(I)c1)C(N)=O [Example 7, L-Tyrosyl-D-alanyl-glycyl-L-(N-ethyl)-m-iodophenylalanine Amide, Acetate Salt]	178	174	363	852	1630	2871	1.9
CCN(C(=O)CNC(=O)[C@@H](C)NC(=O)[C@@H](N)Cc1ccc(O)cc1)[C@@H](Cc1ccccc1)C(N)=O [H Et H, reference compound]	704	1204	2916	3528	–	–	–
CCN(C(=O)CNC(=O)[C@@H](C)NC(=O)[C@H](Cc1ccc(O)cc1)NC)[C@@H](Cc1ccc(F)cc1)C(N)=O [Me Et p-F, reference compound]	431	1425	2415	2033	–	–	–
L-Tyrosyl-D-alanyl-glycyl-L-(N-ethyl)-m-bromophenylalanine Amide, Acetate Salt [Example 3]	–	200	512	1092	2820	–	4.9
